Test results: ChEMBL document CHEMBL3885881, “DrugMatrix”

Species on record: Rattus norvegicus
Assay: DrugMatrix - Regimen: Daily Repeat
Type: toxicity, organism-based, Sprague-Dawley
Set-up: regimen Daily Repeat, gender Male, age 6-8 weeks
Settings: in vivo, po, route oral GAVAGE, dose level High, vehicle 100 % SALINE; for HEMOGLOBIN / LEUKOCYTE COUNT / LYMPHOCYTE / MEAN CORPUSCULAR HEMOGLOBIN / MEAN CORPUSCULAR HEMOGLOBIN CONCENTRATION / MONOCYTE / NEUTROPHIL / NUCLEATED RED BLOOD CELLS / PLATELET COUNT / ABSOLUTE BASOPHIL / ABSOLUTE EOSINOPHIL / ABSOLUTE LYMPHOCYTE / ABSOLUTE MONOCYTE / ABSOLUTE SEGMENTED NEUTROPHIL / BASOPHIL / EOSINOPHIL / ERYTHROCYTE COUNT / HEMATOCRIT: tissue Blood; for ALANINE AMINOTRANSFERASE / ALBUMIN / ALKALINE PHOSPHATASE / ASPARTATE AMINOTRANSFERASE / BLOOD UREA NITROGEN / CARBON DIOXIDE / CHLORIDE / CHOLESTEROL / CREATINE PHOSPHOKINASE / CREATININE / GLUCOSE / LACTATE DEHYDROGENASE / LIPASE / PHOSPHORUS / SODIUM / TOTAL BILIRUBIN / TOTAL PROTEIN: tissue Plasma

CN(C)C=O [DIMETHYLFORMAMIDE]
HEMOGLOBIN (1400 mg/kg, 120 h, time 5 day): 16.7 G/DL
LEUKOCYTE COUNT (1400 mg/kg, 120 h, time 5 day): 7.95 x10E3/uL
LYMPHOCYTE (1400 mg/kg, 120 h, time 5 day): 93%
MEAN CORPUSCULAR HEMOGLOBIN (1400 mg/kg, 120 h, time 5 day): 22.95 pg
MEAN CORPUSCULAR HEMOGLOBIN CONCENTRATION (1400 mg/kg, 120 h, time 5 day): 36.55 G/DL
MONOCYTE (1400 mg/kg, 120 h, time 5 day): 0.5%
NEUTROPHIL (1400 mg/kg, 120 h, time 5 day): 6.5%
NUCLEATED RED BLOOD CELLS (1400 mg/kg, 120 h, time 5 day): 0 /100WBC
PLATELET COUNT (1400 mg/kg, 120 h, time 5 day): 998 x10E3/uL
ALANINE AMINOTRANSFERASE (1400 mg/kg, 120 h, time 5 day): 5117.67 u/L
ALBUMIN (1400 mg/kg, 120 h, time 5 day): 4.53 G/DL
ALKALINE PHOSPHATASE (1400 mg/kg, 120 h, time 5 day): 286.67 u/L
ASPARTATE AMINOTRANSFERASE (1400 mg/kg, 120 h, time 5 day): 8354 u/L
BLOOD UREA NITROGEN (1400 mg/kg, 120 h, time 5 day): 21 mg/dL
CARBON DIOXIDE (1400 mg/kg, 120 h, time 5 day): 35 mmol/L
CHLORIDE (1400 mg/kg, 120 h, time 5 day): 92 MEQ/L
CHOLESTEROL (1400 mg/kg, 120 h, time 5 day): 136 mg/dL
CREATINE PHOSPHOKINASE (1400 mg/kg, 120 h, time 5 day): 493.33 u/L
CREATININE (1400 mg/kg, 120 h, time 5 day): 0.36 mg/dL
GLUCOSE (1400 mg/kg, 120 h, time 5 day): 145 mg/dL
LACTATE DEHYDROGENASE (1400 mg/kg, 120 h, time 5 day): 42966.33 u/L
LIPASE (1400 mg/kg, 120 h, time 5 day): 12.33 u/L
PHOSPHORUS (1400 mg/kg, 120 h, time 5 day): 13.03 mg/dL
SODIUM (1400 mg/kg, 120 h, time 5 day): 146.2 MEQ/L
TOTAL BILIRUBIN (1400 mg/kg, 120 h, time 5 day): 0.5 mg/dL
TOTAL PROTEIN (1400 mg/kg, 120 h, time 5 day): 7.33 G/DL
ABSOLUTE BASOPHIL (2100 mg/kg, 72 h, time 3 day): 0 CELLS/uL
ABSOLUTE EOSINOPHIL (2100 mg/kg, 72 h, time 3 day): 16 CELLS/uL
ABSOLUTE LYMPHOCYTE (2100 mg/kg, 72 h, time 3 day): 6718 CELLS/uL
ABSOLUTE MONOCYTE (2100 mg/kg, 72 h, time 3 day): 23.33 CELLS/uL
ABSOLUTE SEGMENTED NEUTROPHIL (2100 mg/kg, 72 h, time 3 day): 509.33 CELLS/uL
BASOPHIL (2100 mg/kg, 72 h, time 3 day): 0%
EOSINOPHIL (2100 mg/kg, 72 h, time 3 day): 0.17%
ERYTHROCYTE COUNT (2100 mg/kg, 72 h, time 3 day): 5.8 x10E6/uL
HEMATOCRIT (2100 mg/kg, 72 h, time 3 day): 38.27%
HEMOGLOBIN (2100 mg/kg, 72 h, time 3 day): 13.57 G/DL
LEUKOCYTE COUNT (2100 mg/kg, 72 h, time 3 day): 7.27 x10E3/uL
LYMPHOCYTE (2100 mg/kg, 72 h, time 3 day): 92.5%
MEAN CORPUSCULAR HEMOGLOBIN (2100 mg/kg, 72 h, time 3 day): 23.42 pg
MEAN CORPUSCULAR HEMOGLOBIN CONCENTRATION (2100 mg/kg, 72 h, time 3 day): 35.45 G/DL
MONOCYTE (2100 mg/kg, 72 h, time 3 day): 0.33%
NEUTROPHIL (2100 mg/kg, 72 h, time 3 day): 7%
NUCLEATED RED BLOOD CELLS (2100 mg/kg, 72 h, time 3 day): 0 /100WBC
PLATELET COUNT (2100 mg/kg, 72 h, time 3 day): 1059 x10E3/uL
ALANINE AMINOTRANSFERASE (2100 mg/kg, 72 h, time 3 day): 105.67 u/L
ALBUMIN (2100 mg/kg, 72 h, time 3 day): 4.47 G/DL
ALKALINE PHOSPHATASE (2100 mg/kg, 72 h, time 3 day): 224.5 u/L
ASPARTATE AMINOTRANSFERASE (2100 mg/kg, 72 h, time 3 day): 117.33 u/L
BLOOD UREA NITROGEN (2100 mg/kg, 72 h, time 3 day): 14.5 mg/dL
CARBON DIOXIDE (2100 mg/kg, 72 h, time 3 day): 31.33 mmol/L
CHLORIDE (2100 mg/kg, 72 h, time 3 day): 100.17 MEQ/L
CHOLESTEROL (2100 mg/kg, 72 h, time 3 day): 99.33 mg/dL
CREATINE PHOSPHOKINASE (2100 mg/kg, 72 h, time 3 day): 191 u/L
CREATININE (2100 mg/kg, 72 h, time 3 day): 0.22 mg/dL
GLUCOSE (2100 mg/kg, 72 h, time 3 day): 143.67 mg/dL
LACTATE DEHYDROGENASE (2100 mg/kg, 72 h, time 3 day): 109.83 u/L
LIPASE (2100 mg/kg, 72 h, time 3 day): 10.33 u/L
PHOSPHORUS (2100 mg/kg, 72 h, time 3 day): 9.67 mg/dL
SODIUM (2100 mg/kg, 72 h, time 3 day): 146.58 MEQ/L
TOTAL BILIRUBIN (2100 mg/kg, 72 h, time 3 day): 0.17 mg/dL
TOTAL PROTEIN (2100 mg/kg, 72 h, time 3 day): 6.25 G/DL
ABSOLUTE BASOPHIL (2100 mg/kg, […], time 7 day): 0 CELLS/uL
ABSOLUTE EOSINOPHIL (2100 mg/kg, […], time 7 day): 0 CELLS/uL
ABSOLUTE LYMPHOCYTE (2100 mg/kg, […], time 7 day): 6108.5 CELLS/uL
ABSOLUTE MONOCYTE (2100 mg/kg, […], time 7 day): 208.75 CELLS/uL
ABSOLUTE SEGMENTED NEUTROPHIL (2100 mg/kg, […], time 7 day): 1557.75 CELLS/uL
BASOPHIL (2100 mg/kg, […], time 7 day): 0%
EOSINOPHIL (2100 mg/kg, […], time 7 day): 0%
ERYTHROCYTE COUNT (2100 mg/kg, […], time 7 day): 6.06 x10E6/uL
HEMATOCRIT (2100 mg/kg, […], time 7 day): 37.55%
HEMOGLOBIN (2100 mg/kg, […], time 7 day): 14.95 G/DL
LEUKOCYTE COUNT (2100 mg/kg, […], time 7 day): 7.88 x10E3/uL
LYMPHOCYTE (2100 mg/kg, […], time 7 day): 79.5%
MEAN CORPUSCULAR HEMOGLOBIN (2100 mg/kg, […], time 7 day): 24.67 pg
MEAN CORPUSCULAR HEMOGLOBIN CONCENTRATION (2100 mg/kg, […], time 7 day): 39.83 G/DL
MONOCYTE (2100 mg/kg, […], time 7 day): 2.5%
NEUTROPHIL (2100 mg/kg, […], time 7 day): 18%
NUCLEATED RED BLOOD CELLS (2100 mg/kg, […], time 7 day): 0 /100WBC
PLATELET COUNT (2100 mg/kg, […], time 7 day): 396 x10E3/uL
ALANINE AMINOTRANSFERASE (2100 mg/kg, […], time 7 day): 452.75 u/L
ALBUMIN (2100 mg/kg, […], time 7 day): 4.22 G/DL
ALKALINE PHOSPHATASE (2100 mg/kg, […], time 7 day): 271.25 u/L
ASPARTATE AMINOTRANSFERASE (2100 mg/kg, […], time 7 day): 1219.25 u/L
BLOOD UREA NITROGEN (2100 mg/kg, […], time 7 day): 15.25 mg/dL
CARBON DIOXIDE (2100 mg/kg, […], time 7 day): 29 mmol/L
CHLORIDE (2100 mg/kg, […], time 7 day): 103 MEQ/L
CHOLESTEROL (2100 mg/kg, […], time 7 day): 75.75 mg/dL
CREATINE PHOSPHOKINASE (2100 mg/kg, […], time 7 day): 261 u/L
CREATININE (2100 mg/kg, […], time 7 day): 0.25 mg/dL
GLUCOSE (2100 mg/kg, […], time 7 day): 147.75 mg/dL
LACTATE DEHYDROGENASE (2100 mg/kg, […], time 7 day): 101.25 u/L
LIPASE (2100 mg/kg, […], time 7 day): 10.25 u/L
PHOSPHORUS (2100 mg/kg, […], time 7 day): 7.55 mg/dL
SODIUM (2100 mg/kg, […], time 7 day): 147.12 MEQ/L
TOTAL BILIRUBIN (2100 mg/kg, […], time 7 day): 0.33 mg/dL
TOTAL PROTEIN (2100 mg/kg, […], time 7 day): 5.7 G/DL
